Laboratory results published in US20250122218A1, “MODULATORS OF CYSTIC FIBROSIS TRANSMEMBRANE CONDUCTANCE REGULATOR” (Vertex Pharmaceuticals Incorporated, priority 2022, published 2025).

Molecular target: T1, CFTR in F508del/MF-HBE cells (Homo sapiens, UniProt P13569, DEL508-508)
T1 construct: human bronchial epithelial (HBE) cells derived from CF subjects heterozygous for F508del and a minimal function CFTR mutation; endogenous in cells; host or cells: primary human bronchial epithelial cells from CF subjects (F508del/MF-HBE)
Experiment: Ussing chamber assay of CFTR-mediated short-circuit currents (identification of potentiator compounds)
Format: cell-based
Conditions: potentiator incubated 18-24 hours at 37° C. in combination with 10 μM corrector, in the presence of 20% human serum, CFTR-mediated ISC
Procedure: Ussing chamber experiments were performed using human bronchial epithelial (HBE) cells derived from CF subjects heterozygous for F508del and a minimal function CFTR mutation (F508del/MF-HBE) and cultured as previously described (Neuberger T, Burton B, Clark H, Van Goor F; Methods Mol. Biol. 2011:741:39-54). After four days the apical media was removed, and the cells were grown at an air liquid interface for >14 days prior to use.
To isolate the CFTR-mediated short-circuit (ISC) current, F508del/MF-HBE grown on Costar® Snapwell™ cell culture inserts were mounted in an Ussing chamber and the transepithelial ISC was measured under voltage-clamp recording conditions (Vhold=0 mV) at 37° C. The basolateral solution contained (in mM) 145 NaCl, 0.83 K2HPO4, 3.3 KH2PO4, 1.2 MgCl2, 1.2 CaCl2), 10 Glucose, 10 HEPES (pH adjusted to 7.4 with NaOH) and the apical solution contained (in mM) 145 NaGluconate, 1.2 MgCl2, 1.2 CaCl2), 10 glucose, 10 HEPES (pH adjusted to 7.4 with NaOH) and 30 μM amiloride to block the epithelial sodium channel. Forskolin (20 μM) was added to the apical surface to activate CFTR, followed by apical addition of a CFTR inhibitor cocktail consisting of BPO, GlyH-101 and CFTR inhibitor 172 (each at 20 μM final assay concentration) to specifically isolate CFTR currents. The CFTR-mediated ISC (μA/cm^2) for each condition was determined from the peak forskolin response to the steady-state current following inhibition.
The activity of the CFTR potentiator compounds on the CFTR-mediated ISC was determined in Ussing chamber studies as described above. The F508del/MF-HBE cell cultures were incubated with the potentiator compounds at a range of concentrations in combination with 10 μM (14S)-8-[3-(2-{dispiro[2.0.2.1]heptan-7-yl}ethoxy)-1H-pyrazol-1-yl]-12,12-dimethyl-2λ^6-thia-3,9,11,18,23-pentaazatetracyclo[17.3.1.111,14.05,10]tetracosa-1(22),5,7,9,19(23),20-hexaene-2,2,4-trione for 18-24 hours at 37° C. and in the presence of 20% human serum. The concentration of potentiator compounds and (14S)-8-[3-(2-{dispiro[2.0.2.1]heptan-7-yl}ethoxy)-1H-pyrazol-1-yl]-12,12-dimethyl-2λ^6-thia-3,9,11,18,23-pentaazatetracyclo[17.3.1.111,14.05,10]tetracosa-1(22),5,7,9,19(23),20-hexaene-2,2,4-trione used during the 18-24 hours incubations was kept constant throughout the Ussing chamber measurement of the CFTR-mediated ISC to ensure compounds were present throughout the entire experiment. The efficacy and potency of the putative F508del potentiators was compared to that of the known potentiator, ivacaftor (N-[2,4-bis(1,1-dimethylethyl)-5-hydroxyphenyl]-1,4-dihydro-4-oxoquinoline-3-carboxamide).

T1 sequence (P13569 with tags, fused parts or gaps DEL508-508): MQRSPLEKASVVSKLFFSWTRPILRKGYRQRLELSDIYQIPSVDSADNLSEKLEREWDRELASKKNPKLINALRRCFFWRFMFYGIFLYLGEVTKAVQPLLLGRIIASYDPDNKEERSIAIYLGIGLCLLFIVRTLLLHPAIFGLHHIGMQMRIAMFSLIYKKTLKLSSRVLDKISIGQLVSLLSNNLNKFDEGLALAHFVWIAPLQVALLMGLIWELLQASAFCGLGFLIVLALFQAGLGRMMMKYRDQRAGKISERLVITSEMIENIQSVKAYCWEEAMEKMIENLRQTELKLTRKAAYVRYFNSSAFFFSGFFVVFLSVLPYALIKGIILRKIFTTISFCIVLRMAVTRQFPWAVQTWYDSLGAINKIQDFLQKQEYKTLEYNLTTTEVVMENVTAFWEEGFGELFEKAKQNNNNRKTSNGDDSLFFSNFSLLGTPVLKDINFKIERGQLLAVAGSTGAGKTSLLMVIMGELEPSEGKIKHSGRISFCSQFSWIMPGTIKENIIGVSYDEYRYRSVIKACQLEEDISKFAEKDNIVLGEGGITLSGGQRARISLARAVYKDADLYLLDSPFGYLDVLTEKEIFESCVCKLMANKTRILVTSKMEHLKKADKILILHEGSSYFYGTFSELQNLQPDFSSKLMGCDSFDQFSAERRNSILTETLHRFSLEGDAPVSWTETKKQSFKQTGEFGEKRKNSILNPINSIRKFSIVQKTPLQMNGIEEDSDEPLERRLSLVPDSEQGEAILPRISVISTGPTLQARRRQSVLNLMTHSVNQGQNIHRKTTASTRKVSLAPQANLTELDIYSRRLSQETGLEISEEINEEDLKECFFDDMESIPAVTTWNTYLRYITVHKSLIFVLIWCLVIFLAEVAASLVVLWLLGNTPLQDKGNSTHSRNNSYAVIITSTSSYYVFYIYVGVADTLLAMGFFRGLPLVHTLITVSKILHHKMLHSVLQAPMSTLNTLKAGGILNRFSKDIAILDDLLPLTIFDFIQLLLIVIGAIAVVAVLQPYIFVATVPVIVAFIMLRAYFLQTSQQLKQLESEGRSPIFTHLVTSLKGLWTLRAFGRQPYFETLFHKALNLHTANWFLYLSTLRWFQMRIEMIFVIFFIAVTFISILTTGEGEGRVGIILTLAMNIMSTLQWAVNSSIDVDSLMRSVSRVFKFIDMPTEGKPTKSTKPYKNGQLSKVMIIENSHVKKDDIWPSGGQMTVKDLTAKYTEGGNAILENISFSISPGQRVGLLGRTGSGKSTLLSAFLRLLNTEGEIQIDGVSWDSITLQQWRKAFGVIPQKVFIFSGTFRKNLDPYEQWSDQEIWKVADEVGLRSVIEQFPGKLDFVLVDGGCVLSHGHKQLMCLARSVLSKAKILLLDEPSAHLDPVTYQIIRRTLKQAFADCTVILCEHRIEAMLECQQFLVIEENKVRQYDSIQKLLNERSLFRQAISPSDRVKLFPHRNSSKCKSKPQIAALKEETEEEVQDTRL

SMILES	EC50
CC1(C)CCCCC[C@](O)(C(F)(F)F)C2=NN=C(O2)c2nc(c(C(F)(F)F)cc2N)C1=O [Compound 45, (6R)-17-amino-6-hydroxy-12,12-dimethyl-6,15-bis(trifluoromethyl)-19-oxa-3,4,18-triazatricyclo[12.3.1.12,5]nonadeca-1(18),2,4,14,16-pentaen-13-one]	< 500 nM
Cc1ccccc1CN1CCCCC[C@](O)(C(F)(F)F)C2=NN=C(O2)c2nc(c(C(F)(F)F)cc2N)C1=O [Compound 127, (6R)-17-amino-6-hydroxy-12-(0-tolylmethyl)-6,15-bis (trifluoromethyl)-19-oxa-3,4,12,18-tetrazatricyclo [12.3.1.12,5] nonadeca-1(18),2,4,14,1 6-pentaen-13-one]	< 500 nM
Nc1cc(C(F)(F)F)c2nc1-c1nnc(o1)C(O)(C(F)(F)F)CCCCN(Cc1ccccc1)C2=O (single isomer, unassigned) [Compound 239, 16-amino-11-benzyl-6-hydroxy-6,14-bis(trifluoromethyl)-18-oxa-3,4,11,17-tetrazatricyclo [11.3.1.12,5] octadeca-1(17),2,4,13,15-pentaen-12-one]	< 500 nM
CC(C)(C)ON=C1CCCCCC[C@](O)(C(F)(F)F)C2=NN=C(O2)c2nc1c(C(F)(F)F)cc2N (single isomer, unassigned) [Compound 30]	< 500 nM
Cc1cc(OC(F)(F)F)ccc1CN1CCCCC[C@](O)(C(F)(F)F)C2=NN=C(O2)c2nc(c(C(F)(F)F)cc2N)C1=O [Compound 157, (6R)-17-amino-6-hydroxy-12-[[2-methyl-4-(trifluoromethoxy)phenyl]methyl]-6,15-bis (trifluoromethyl)-19-oxa-3,4,12,18-tetrazatricyclo [12.3.1.12,5] nonadeca-1(18),2,4,14,1 6-pentaen-13-one]	< 500 nM
CC(C)(C)c1ccc(CN2CCCCC[C@](O)(C(F)(F)F)C3=NN=C(O3)c3nc(c(C(F)(F)F)cc3N)C2=O)cn1 [Compound 119, (6R)-17-Amino-12-[(6-tert-butyl-3-pyridyl)methyl]-6-hydroxy-6,15-bis (trifluoromethyl)-19-oxa-3,4,12,18-tetrazatricyclo [12.3.1.12,5] nonadeca-1(18),2,4,14,1 6-pentaen-13-one]	< 500 nM
Nc1cc(C(F)(F)F)c2nc1-c1nnc(o1)C(O)(C(F)(F)F)CCCCNC2=O (single isomer, unassigned) [Compound 250, 16-amino-6-hydroxy-6,14-bis(trifluoromethyl)-18-oxa-3,4,11,17-tetrazatricyclo [11.3.1.12,5] octadeca-1(17),2,4,13,15-pentaen-12-one]	> 1000 nM
CC(C)(O)c1cccc(CN2CCCCC[C@](O)(C(F)(F)F)C3=NN=C(O3)c3nc(c(C(F)(F)F)cc3N)C2=O)c1 [Compound 244, (6R)-17-amino-6-hydroxy-12-[[3-(1-hydroxy-1-methyl-ethyl)phenyl]methyl]-6,15-bis(trifluoromethyl)-19-oxa-3,4,12,18-tetrazatricyclo [12.3.1.12,5] nonadeca-1(18),2,4,14,16-pentaen-13-one]	< 500 nM
Nc1cc(C(F)(F)F)c2nc1-c1nnc(o1)[C@@](O)(C(F)(F)F)CCCCCN(CC1C3CCCCC31)C2=O (stereo partly drawn) [Compound 246, (6R)-17-amino-6-hydroxy-12-(norcaran-7-ylmethyl)-6,15-bis(trifluoromethyl)-19-oxa-3,4,12,18-tetrazatricyclo [12.3.1.12,5] nonadeca-1(18),2,4,14,16-pentaen-13-one]	< 500 nM
Nc1cc(C(F)(F)F)c2nc1-c1nnc(o1)[C@@](O)(C(F)(F)F)CCCCCN(CC1CC(F)(F)C1)C2=O [Compound 243, (6R)-17-amino-12-[(3,3-difluorocyclobutyl)methyl]-6-hydroxy-6,15-bis(trifluoromethyl)-19-oxa-3,4,12,18-tetrazatricyclo [12.3.1.12,5] nonadeca-1(18),2,4,14,16-pentaen-13-one]	< 500 nM
Nc1cc(C(F)(F)F)c2nc1-c1nnc(o1)[C@@](O)(C(F)(F)F)CCCCCN(C1CCCOC1)C2=O (mixture of isomers) [Compound 133, (6R)-17-Amino-6-hydroxy-12-tetrahydropyran-3-yl-6,15-bis (trifluoromethyl)-19-oxa-3,4,12,18-tetrazatricyclo [12.3.1.12,5] nonadeca-1(18),2,4,14,1 6-pentaen-13-one]	< 500 nM
COc1ccccc1CN1CCCCC[C@](O)(C(F)(F)F)C2=NN=C(O2)c2nc(c(C(F)(F)F)cc2N)C1=O [Compound 155, (6R)-17-amino-6-hydroxy-12-[(2-methoxyphenyl)methyl]-6,15-bis (trifluoromethyl)-19-oxa-3,4,12,18-tetrazatricyclo [12.3.1.12,5] nonadeca-1(18),2,4,14,1 6-pentaen-13-one]	< 500 nM

The next lines start with the values.

EC50	SMILES
< 500 nM	CC1(C)CCCC[C@](O)(C(F)(F)F)C2=NN=C(O2)c2nc(c(C(F)(F)F)cc2N)C(=O)C1 [Compound 47, (6R)-17-amino-6-hydroxy-11,11-dimethyl-6,15-bis(trifluoromethyl)-19-oxa-3,4,18-triazatricyclo[12.3.1.12,5]nonadeca-1(18),2,4,14,16-pentaen-13-one]
< 500 nM	Nc1cc(C(F)(F)F)c2nc1-c1nnc(o1)[C@@](O)(C(F)(F)F)CCCCCN(Cc1cccc(C(F)F)c1)C2=O [Compound 241, (6R)-17-amino-12-[[3-(difluoromethyl)phenyl]methyl]-6-hydroxy-6,15-bis(trifluoromethyl)-19-oxa-3,4,12,18-tetrazatricyclo [12.3.1.12,5] nonadeca-1(18),2,4,14,16-pentaen-13-one]
< 500 nM	CC(C)(C)c1ccc(CN2CCCCC[C@](O)(C(F)(F)F)C3=NN=C(O3)c3nc(c(C(F)(F)F)cc3N)C2=O)cc1 [Compound 116, (6R)-17-Amino-12-[(4-tert-butylphenyl)methyl]-6-hydroxy-6,15-bis (trifluoromethyl)-19-oxa-3,4,12,18-tetrazatricyclo [12.3.1.12,5] nonadeca-1(18),2,4,14,1 6-pentaen-13-one]
< 500 nM	Nc1cc(C(F)(F)F)c2nc1-c1nnc(o1)C(O)(C(F)(F)F)c1cc(ccc1F)CCCN(C1CC(F)(F)C1)C2=O (single isomer, unassigned) [Compound 202, 20-amino-15-(3,3-difluorocyclobutyl)-8-fluoro-6-hydroxy-6,18-bis(trifluoromethyl)-23-oxa-3,4,15,21-tetraazatetracyclo [15.3.1.12,5.17,11] tricosa 1(21),2,4,7(22),8,10, 17,19-octaen-16-one]
> 1000 nM	Nc1cc(C(F)(F)F)c2nc1-c1nnc(o1)[C@@](O)(C(F)(F)F)CCCCCN(C1CS(=O)(=O)C1)C2=O [Compound 103, (6R)-17-Amino-12-(1,1-dioxothietan-3-yl)-6-hydroxy-6,15-bis (trifluoromethyl)-19-oxa-3,4,12,18-tetrazatricyclo [12.3.1.12,5] nonadeca-1(18),2,4,14,1 6-pentaen-13-one]
> 1000 nM	Nc1cc(C(F)(F)F)c2nc1-c1nnc(o1)[C@@](O)(C(F)(F)F)CCCCCN(CC(C1CC1)C1CC1)C2=O [Compound 251, (6R)-17-amino-12-(2,2-dicyclopropylethyl)-6-hydroxy-6,15-bis(trifluoromethyl)-19-oxa-3,4,12,18-tetrazatricyclo [12.3.1.12,5] nonadeca-1(18),2,4,14,16-pentaen-13-one]
